Source: US20080280833A1, “Therapeutic Peptides Derived from Urokinase Plasminogen Activator Receptor” (priority 2005, published 2008)

Key:
[1] = tested on: rat smooth muscle cells (RSMC); test: Chemotaxis assay, rat smooth muscle cells; format: cell-based; settings: for inhibition of D2A-induced RSMC migration: attractant D2A; for inhibition of VN-induced RSMC migration: attractant VN
Method: (§1) Chemotaxis assay was performed as described (Degryse et al., 1999, 2001a, 2001b) with modified Boyden chambers. Filters (5 μm pore size, Neuro Probe, Gaithersburg, Md.) were treated with collagen I (100 μg/ml) and fibronectin (10 μg/ml, Roche).≈40-50,000 cells in serum-free DMEM were added to the upper well and the chemoattractants tested added to the lower well. When present, antibodies, or inhibitors were added in both wells. After overnight migration at 37° C., cells remaining on the upper surface of filters were scraped off and filters were fixed in methanol and stained in a solution of 10% (w/v) crystal violet in 20% (v/v) methanol. The experiments were performed at least twice in triplicate and the results, expressed as fold over control, are the mean ±SD of the number of cells counted in ten high power fields per filter. Random cell migration, i.e. migration in the absence of chemoattractant, was given the arbitrary value of 100%.

[2] = tested on: human HT1080 fibrosarcoma cells; test: Matrigel invasion assay; format: cell-based; settings: for inhibition of EGF-dependent invasion / inhibition of insulin-dependent invasion: HT1080, 100 pM; for inhibition of VN-induced invasiveness / inhibition of uPA-induced invasiveness: HT1080, at about the same concentration (around 1 pM); for inhibition of FN-induced invasion: HT1080, at the same concentration; for stimulation of Matrigel invasiveness of HT1080 cells: substance alone, 24 hours at 37° C.; for concentration of peak stimulation of Matrigel invasiveness: HT1080, dose-dependent
KG-1 cells = test: Chemotaxis assay of non adherent cells, Boyden micro-chamber; format: cell-based, human; settings: for chemotaxis of KG-1 cells: peptide as chemoattractant, 1 hour at 37° C.
Method: Chemotaxis assay of non adherent cells was performed as described (Degryse et al., 2001; FEBS lett. 505: 249-254) using modified Boyden micro-chamber with the exception that the filter was not treated. 50,000 cells were added in the top well in serum-free RPMI medium and allowed to migrate for 1 hour at 37° C. The molecules to be tested as chemoattractant were diluted in serum-free RPMI medium and added in the lower well of the Boyden chamber. Experiments were performed in triplicate. Results are the mean ±SD of the number of cells counted in five high power fields. Migration in the absence of chemoattractant is referred to as 100%.

[3] = tested on: Rat Smooth Muscle Cells and HT1080 Human Fibrosarcoma Cells; test: Boyden chamber assays, pleiotropic inhibition of chemotaxis; format: cell-based
Source text: In Boyden chamber assays, D2A-Ala and GAAG inhibit not only VN-dependent and uPA-dependent chemotaxis (as reported above), but also EGF— and UTP-dependent chemotaxis. The effect is dose-dependent. Notice that the EGF-dependent and the UTP-dependent chemotaxis work through receptors (EGF-receptor and P2Y2 receptor, respectively), that are different among themselves and are different from those employed by uPA (uPAR) and VN (αvβ3). We conclude that these two inhibitors are general inhibitors of chemotaxis.

uPAR-αvβ3 complexes = target: T1, uPAR-αvβ3 complexes (Homo sapiens, UniProt P05106+P06756); test: Pull-down assay, 125I-suPAR with purified αvβ3 integrin; format: binding
T1 construct: purchased Chemicon (integrins); American Diagnostica (uPA)
T1 sequence (P06756 31-889 limits assumed): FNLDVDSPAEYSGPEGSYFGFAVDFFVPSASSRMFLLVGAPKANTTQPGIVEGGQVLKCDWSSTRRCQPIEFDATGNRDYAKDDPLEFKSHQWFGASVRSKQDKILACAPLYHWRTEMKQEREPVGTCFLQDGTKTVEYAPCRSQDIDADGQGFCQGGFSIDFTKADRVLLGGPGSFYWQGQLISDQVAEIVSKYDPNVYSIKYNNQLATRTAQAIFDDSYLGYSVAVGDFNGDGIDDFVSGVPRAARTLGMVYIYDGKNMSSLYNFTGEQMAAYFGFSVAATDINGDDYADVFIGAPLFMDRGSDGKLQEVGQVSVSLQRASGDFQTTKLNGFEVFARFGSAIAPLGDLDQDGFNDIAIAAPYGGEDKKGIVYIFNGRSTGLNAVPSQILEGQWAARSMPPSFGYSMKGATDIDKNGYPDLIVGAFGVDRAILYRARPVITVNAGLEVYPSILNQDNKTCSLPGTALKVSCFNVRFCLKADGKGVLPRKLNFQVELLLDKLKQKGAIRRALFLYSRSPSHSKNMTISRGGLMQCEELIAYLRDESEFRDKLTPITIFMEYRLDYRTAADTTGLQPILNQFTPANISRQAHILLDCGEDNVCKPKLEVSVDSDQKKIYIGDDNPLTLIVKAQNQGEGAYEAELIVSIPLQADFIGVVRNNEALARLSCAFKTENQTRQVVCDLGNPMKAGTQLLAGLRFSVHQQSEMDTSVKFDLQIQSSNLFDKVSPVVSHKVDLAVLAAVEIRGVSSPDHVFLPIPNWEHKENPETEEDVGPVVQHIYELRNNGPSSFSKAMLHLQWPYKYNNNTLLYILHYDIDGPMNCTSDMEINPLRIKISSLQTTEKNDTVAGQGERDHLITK
T1 sequence (P06756 891-1048 limits assumed): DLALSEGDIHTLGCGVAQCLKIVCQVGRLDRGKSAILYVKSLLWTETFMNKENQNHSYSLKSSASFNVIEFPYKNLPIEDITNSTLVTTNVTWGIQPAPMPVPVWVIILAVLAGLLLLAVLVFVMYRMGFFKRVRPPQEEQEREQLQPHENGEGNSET
T1 sequence (P05106 27-788): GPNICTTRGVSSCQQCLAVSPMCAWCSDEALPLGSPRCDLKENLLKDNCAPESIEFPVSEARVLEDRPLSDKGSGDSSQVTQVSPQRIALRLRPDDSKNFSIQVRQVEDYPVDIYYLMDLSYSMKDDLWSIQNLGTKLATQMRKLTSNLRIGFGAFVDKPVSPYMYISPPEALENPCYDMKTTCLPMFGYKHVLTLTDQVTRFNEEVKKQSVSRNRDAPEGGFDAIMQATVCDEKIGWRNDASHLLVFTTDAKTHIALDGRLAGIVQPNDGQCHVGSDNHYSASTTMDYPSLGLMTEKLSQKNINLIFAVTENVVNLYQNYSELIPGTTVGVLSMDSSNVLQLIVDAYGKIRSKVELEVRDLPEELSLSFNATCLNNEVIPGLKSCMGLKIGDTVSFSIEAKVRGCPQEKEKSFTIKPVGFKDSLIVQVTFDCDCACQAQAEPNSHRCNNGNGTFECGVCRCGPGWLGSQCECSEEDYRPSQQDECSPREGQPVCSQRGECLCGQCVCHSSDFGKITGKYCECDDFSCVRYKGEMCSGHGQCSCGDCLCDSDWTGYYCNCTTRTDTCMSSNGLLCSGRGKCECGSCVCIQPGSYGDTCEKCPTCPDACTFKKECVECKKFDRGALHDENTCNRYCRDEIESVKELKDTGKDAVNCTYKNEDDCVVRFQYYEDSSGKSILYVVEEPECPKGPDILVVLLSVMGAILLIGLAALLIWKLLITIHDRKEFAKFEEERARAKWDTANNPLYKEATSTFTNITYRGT
Method: (§2) Soluble uPAR (suPAR) was radioiodinated (as for VN, see above) at a specific activity of 1.5×10^5 cpm/ng. A mix composed of 2 μg of either purified αvβ3 or α5β1 integrin, and […] of ^125I-suPAR was incubated for 4 hours at 4° C. in the absence (control) or in the presence of 4 μg of uPA with or without 5 μg of either D2A or D2A-Ala peptide in binding buffer, (RPMI plus 0.02% BSA, 10 mM HEPES pH 7.4, total volume 300 μl). Complexes were immunoprecipitated with 3 μg of anti-αvβ3 (LM609) or anti-α5β1 monoclonal antibody, and 60 μl of protein G-agarose beads (Amersham Biosciences), Beads were washed three times in binding buffer, extracted in reducing sample buffer, and proteins were fractionated by SDS-PAGE. Gels were analyzed by autoradiography and densitometry. Results are presented as percentage of relative density units normalized to uPA alone.

[4] = tested on: human smooth muscle cells from the aorta (AoSMC); test: Chemotaxis assay, human aortic smooth muscle cells; format: cell-based
Method: as §1

[5] = tested on: human smooth muscle cells from the coronary artery (CASMC); test: Chemotaxis assay, human coronary artery smooth muscle cells; format: cell-based
Method: as §1

HEK-293 cells = test: Chemotaxis assay, HEK-293 cells; format: cell-based, human; settings: for cell migration in the presence of VN: HEK-293, VN 1 μg/ml + peptide 1 pM; for cell migration: HEK-293, peptide alone 1 pM
Method: as §1

Stat1 = test: Immunofluorescence microscopy, Stat1 distribution; format: cell-based, rat; settings: RSMC; for Stat1 activation and translocation into the nucleus: 30 minutes at 37° C., peptide 1 pM or VN 1 μg/ml
Method: (§3) As previously described (Degryse et al., 1999; 2004) 15,000-25,000 cells (20-40% confluence), were seeded on glass coverslips in 2 cm^2 well, cultured for 24 hours in DMEM plus 10% FCS, washed with PBS and cultured for another 24 hours without FCS. After stimulation, RSMC were fixed for 20 min at RT with 3% paraformaldehyde, 2% sucrose in PBS pH 7.5, washed 3 times with PBS-BSA 0.2%, permeabilized with 20 mM hepes pH 7.4, 300 mM saccharose, 50 mM NaCl, 3 mM MgCl2, 0.5% (v/v) Triton X-100 for 3 min at 4° C., and washed 3 times with PBS-BSA 0.2%. RSMC were incubated in PBS-BSA 2% for 15 min at 37° C., then with anti-Stat1 primary antibodies for 30 min at 37° C., washed 3 times with PBS-BSA 0.2%, and further incubated with PBS-BSA 2% for 15 min at 37° C. Cells were stained with the secondary TRITC-antibody and with FITC-phalloidin for visualization of filamentous actin, for 30 min at 37° C. DAPI (4′,6-diamidino-2-phenylindole, Roche) was used to label the nucleus. Finally, after 3 washes with PBS-BSA 0.2%, one with distilled water, coverslips were mounted with 20% (w/v) Mowiol. Fluorescence Photographs were taken with a Zeiss Axiophot microscope
To quantify the activation of Stat1, random pictures were taken and nuclei positively stained for Stat1 were counted and expressed in percent.

RSMC = test: Immunofluorescence microscopy, actin cytoskeleton and cell morphology; format: cell-based, rat; settings: 30 minutes at 37° C., peptide 1 pM or VN 1 μg/ml
Method: as §3

HEK-293-uPAR cells = test: Chemotaxis assay, HEK-293-uPAR cells; format: cell-based, human; settings: HEK-293-uPAR; for cell migration in the presence of VN: VN 1 μg/ml + peptide 1 pM; for cell migration: peptide alone 1 pM
Method: as §1

uPAR-α5β1 complexes = target: T2, uPAR-α5β1 complexes (Homo sapiens, UniProt P05556+P08648); test: Pull-down assay, 125I-suPAR with purified α5β1 integrin; format: binding; settings: in the presence of uPA
T2 construct: purchased Chemicon (integrins); American Diagnostica (uPA)
T2 sequence (P08648 42-894 limits assumed): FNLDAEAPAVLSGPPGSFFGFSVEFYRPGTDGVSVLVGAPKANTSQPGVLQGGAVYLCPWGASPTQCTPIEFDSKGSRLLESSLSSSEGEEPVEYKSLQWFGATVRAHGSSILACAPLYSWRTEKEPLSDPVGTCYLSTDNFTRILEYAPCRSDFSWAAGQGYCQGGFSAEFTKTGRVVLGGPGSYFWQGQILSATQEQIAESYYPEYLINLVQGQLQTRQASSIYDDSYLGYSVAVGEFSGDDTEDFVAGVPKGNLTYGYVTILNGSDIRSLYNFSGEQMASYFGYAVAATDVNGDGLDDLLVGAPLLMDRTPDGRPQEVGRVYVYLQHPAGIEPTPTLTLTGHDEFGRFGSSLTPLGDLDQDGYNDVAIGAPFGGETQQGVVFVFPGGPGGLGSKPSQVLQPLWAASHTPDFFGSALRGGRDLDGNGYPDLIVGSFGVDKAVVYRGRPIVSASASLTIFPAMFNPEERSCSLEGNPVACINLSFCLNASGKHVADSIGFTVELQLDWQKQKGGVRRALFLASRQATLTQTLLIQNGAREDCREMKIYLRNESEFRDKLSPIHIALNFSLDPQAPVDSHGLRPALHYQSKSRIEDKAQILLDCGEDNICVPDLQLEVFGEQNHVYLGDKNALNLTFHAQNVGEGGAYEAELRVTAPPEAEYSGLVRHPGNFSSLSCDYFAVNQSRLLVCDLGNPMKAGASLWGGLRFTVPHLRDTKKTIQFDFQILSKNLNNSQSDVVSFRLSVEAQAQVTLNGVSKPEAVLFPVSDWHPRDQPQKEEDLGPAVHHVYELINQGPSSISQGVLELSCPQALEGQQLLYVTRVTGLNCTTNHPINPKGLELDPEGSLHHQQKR
T2 sequence (P08648 895-1049 limits assumed): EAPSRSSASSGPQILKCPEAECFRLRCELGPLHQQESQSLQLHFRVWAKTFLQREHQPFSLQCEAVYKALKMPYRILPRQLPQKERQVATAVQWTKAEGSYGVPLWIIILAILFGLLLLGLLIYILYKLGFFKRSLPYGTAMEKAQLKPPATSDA
T2 sequence (P05556 21-798): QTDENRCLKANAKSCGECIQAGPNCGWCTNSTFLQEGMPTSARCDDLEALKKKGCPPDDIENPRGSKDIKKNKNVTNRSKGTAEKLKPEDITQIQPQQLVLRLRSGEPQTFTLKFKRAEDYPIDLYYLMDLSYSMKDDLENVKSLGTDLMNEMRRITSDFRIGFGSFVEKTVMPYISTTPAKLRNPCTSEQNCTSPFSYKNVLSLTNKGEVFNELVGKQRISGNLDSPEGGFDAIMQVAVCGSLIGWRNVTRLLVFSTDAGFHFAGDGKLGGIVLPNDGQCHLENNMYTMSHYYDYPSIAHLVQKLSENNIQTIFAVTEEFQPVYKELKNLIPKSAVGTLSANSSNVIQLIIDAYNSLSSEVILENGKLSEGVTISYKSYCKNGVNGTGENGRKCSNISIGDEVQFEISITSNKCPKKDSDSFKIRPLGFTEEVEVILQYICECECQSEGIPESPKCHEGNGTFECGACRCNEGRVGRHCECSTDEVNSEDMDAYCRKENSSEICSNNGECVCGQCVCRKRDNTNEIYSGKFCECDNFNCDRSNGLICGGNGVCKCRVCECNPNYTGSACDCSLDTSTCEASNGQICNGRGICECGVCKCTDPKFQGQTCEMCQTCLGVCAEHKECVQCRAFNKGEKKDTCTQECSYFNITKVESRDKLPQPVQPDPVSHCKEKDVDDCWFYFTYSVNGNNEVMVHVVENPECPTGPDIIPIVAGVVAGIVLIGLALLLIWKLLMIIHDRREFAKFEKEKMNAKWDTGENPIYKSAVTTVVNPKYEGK
Method: as §2

LB6-D1HD3 cells = test: Chemotaxis assay, LB6-D1HD3 cells (uPAR lacking domain 2); format: cell-based, mouse
Method: as §1

N#C/C(=C/c1ccc(O)c(O)c1)C(=O)NCc1ccccc1 [AG-490, reference compound]
inhibition of D2A-induced RSMC migration ([1]; RSMC): inhibited | inhibition of VN-induced RSMC migration ([1]; RSMC): inhibited

COc1cccc(-c2cc(=O)c3ccccc3o2)c1N [PD98059, reference compound]
inhibition of D2A-induced RSMC migration ([1]; RSMC): Neither VN- nor D2A-induced cell migration were blocked | inhibition of VN-induced RSMC migration ([1]; RSMC): Neither VN- nor D2A-induced cell migration were blocked

GAAG (Amino acid sequence motif) [shorter version of D2A-Ala]
inhibition of EGF-dependent invasion [2]: inhibit | inhibition of insulin-dependent invasion [2]: inhibit | inhibition of VN-induced invasiveness [2]: inhibit | inhibition of uPA-induced invasiveness [2]: inhibit | inhibition of FN-induced invasion [2]: inhibit | stimulation of Matrigel invasiveness of HT1080 cells [2]: have no effects | inhibition of vitronectin (VN)-induced chemotaxis of KG-1 cells (KG-1 cells): inhibited | inhibition of VN-dependent chemotaxis [3]: inhibit | inhibition of uPA-dependent chemotaxis [3]: inhibit | inhibition of EGF-dependent chemotaxis [3]: inhibit | inhibition of UTP-dependent chemotaxis [3]: inhibit

GEEG
concentration of peak stimulation of Matrigel invasiveness [2]: around 1 pM | stimulation of Matrigel invasiveness of HT1080 cells [2]: stimulate

IQEGAAGRPKDDR [D2A-Ala, D2A with two glutamic acids changed into two alanines]
effect on uPAR-αvβ3 co-immunoprecipitation (uPAR-αvβ3 complexes; in the presence of uPA): prevented | inhibition of VN-induced migration [4]: totally inhibited | inhibition of VN-induced migration [5]: totally inhibited | inhibition of EGF-dependent invasion [2]: inhibit | inhibition of insulin-dependent invasion [2]: inhibit | inhibition of VN-induced invasiveness [2]: inhibit | inhibition of uPA-induced invasiveness [2]: inhibit | inhibition of FN-induced invasion [2]: inhibit | stimulation of Matrigel invasiveness of HT1080 cells [2]: have no effects | cell migration in the presence of VN (HEK-293 cells): 94.50 ± 19.58 % of control | cell migration (HEK-293 cells): 110.19 ± 26.63 % of control | Stat1 activation and translocation into the nucleus (Stat1): failed to activate Stat1 | inhibition of VN-induced translocation of Stat1 (Stat1; peptide 1 pM with VN 1 μg/ml): inhibited | cell morphology and actin cytoskeleton organization (RSMC): did not promote the change of morphology and reorganization of actin cytoskeleton | inhibition of FN-induced migration ([1]; RSMC): inhibited | inhibition of LN-induced migration ([1]; RSMC): inhibited | stimulation of RSMC migration (chemotactic activity) ([1]; RSMC): failed to stimulate cell migration | inhibition of VN-induced RSMC migration ([1]; RSMC): completely abrogated | concentration at which an effect on VN-induced cell migration is already visible ([1]; VN-stimulated RSMC): 10 fM | concentration giving complete inhibition of VN-induced cell migration ([1]; VN-stimulated RSMC): 1 pM | inhibition of vitronectin (VN)-induced chemotaxis of KG-1 cells (KG-1 cells): inhibited | cell migration in the presence of VN (HEK-293-uPAR cells): 108.18 ± 13.90 % of control | cell migration (HEK-293-uPAR cells): 108.72 ± 17.37 % of control | inhibition of VN-dependent chemotaxis [3]: inhibit | inhibition of uPA-dependent chemotaxis [3]: inhibit | inhibition of EGF-dependent chemotaxis [3]: inhibit | inhibition of UTP-dependent chemotaxis [3]: inhibit

IQEGEEGRPKDDR [D2A]
reduction of coimmunoprecipitated suPAR compared to uPA alone (uPAR-αvβ3 complexes; uPA plus peptide, αvβ3): approximately 50% | effect on uPA-induced co-immunoprecipitation of suPAR and α5β1 (uPAR-α5β1 complexes): can also prevent | concentration of peak stimulation of Matrigel invasiveness [2]: around 1 pM | stimulation of Matrigel invasiveness of HT1080 cells [2]: stimulate | cell migration in the presence of VN (HEK-293 cells): 190.23 ± 35.24 % of control | cell migration (HEK-293 cells): 106.98 ± 11.78 % of control | Stat1 activation and translocation into the nucleus (Stat1): induced its translocation into the nucleus | cell morphology and actin cytoskeleton organization (RSMC): a complete change of morphology and cytoskeleton organization occurred | stimulation of RSMC migration (chemotactic activity) ([1]; RSMC): equally active in stimulating migration | additivity of chemotactic effects with VN ([1]; RSMC, D2A 1 pM combined with VN 1 μg/ml): did not further increase cell migration | chemotaxis of KG-1 cells (KG-1 cells): stimulated migration | cell migration in the presence of VN (HEK-293-uPAR cells): 400.88 ± 17.41 % of control | cell migration (HEK-293-uPAR cells): 325.48 ± 14.42 % of control | maximal increase of migration (LB6-D1HD3 cells; LB6-D1HD3 cells, at 10 pM, peptide per se): 2 fold | effect on response to VN of non-responsive LB6-D1HD3 cells (LB6-D1HD3 cells; with VN 1 μg/ml): restored the response to VN

RDDKPRGEEGEQI [D2B]
stimulation of RSMC migration (chemotactic activity) ([1]; RSMC): equally active in stimulating migration | chemotaxis of KG-1 cells (KG-1 cells): also promotes the migration
